In publication PMC7397269, “Synthesis and Evaluation of New Coumarin Derivatives as Antioxidant, Antimicrobial, and Anti-Inflammatory Agents” (Molecules, 2020):
In brackets after ≈: the same amount, converted by molar mass. Several values for one entry are separate records, joined by “and”; a condition that tells them apart may be missing. Identical values can stand only once.

How the values were obtained:
[1] = test system: Escherichia coli ATCC 2592; experiment: MIC, two-fold serial dilution, E. coli; type: cell-based; conditions: ATCC2592, read-out: Minimum inhibitory concentration, EC
In short: (§1)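 Compounds with agar-well inhibition zones >16 mm were retested by two-fold broth dilution at final concentrations of 1000, 500, 250 and 125 μg/mL. Inocula of 1 × 10^8 CFU/mL (bacteria) or 1 × 10^6 CFU/mL (yeast), 0.1 mL per 5 mL. MIC = lowest concentration without growth after 24 h at 37 °C.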

[2] = test system: Candida albicans NRRL Y-477; experiment: MIC, two-fold serial dilution, C. albicans; type: cell-based; conditions: NRRLY477, read-out: Minimum inhibitory concentration, CA
In short: as §1

[3] = test system: Escherichia coli ATCC 2592; experiment: Agar well diffusion, E. coli; type: cell-based; conditions: ATCC2592, 100 μL of 10 mg/mL in DMSO, read-out: diameter of inhibition zone, EC
In short: (§2)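 Agar well diffusion; NA for bacteria, SDA for yeast; inoculum 1 × 10^8 CFU/mL bacteria, 1 × 10^6 CFU/mL yeast. 100 μL of 10 mg/mL compound in DMSO per 10 mm well. 24 h, 37 °C; zone diameter, mm, n=3.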

[4] = test system: Saccharomyces cerevisiae local isolate; experiment: MIC, two-fold serial dilution, S. cerevisiae; type: cell-based; conditions: two-fold serial dilution, S. cerevisiae, read-out: Minimum inhibitory concentration, SC
In short: as §1

[5] = test system: Saccharomyces cerevisiae local isolate; experiment: Agar well diffusion, S. cerevisiae; type: cell-based; conditions: well diffusion, 100 μL of 10 mg/mL in DMSO, S. cerevisiae, read-out: diameter of inhibition zone, SC
In short: as §2

[6] = target: T1, COX-1 (Homo sapiens, UniProt P23219); experiment: COX-1 inhibition, Cayman assay kit; type: biochemical; conditions: mean of two determinations
T1 construct: purchased Cayman Chemical 701070

[7] = target: T2, COX-2 (Homo sapiens, UniProt P35354); experiment: COX-2 inhibition, Cayman assay kit; type: biochemical; conditions: for IC50: mean of two determinations; for SI, selectivity index (COX-1/COX-2): ratio of COX-1/COX-2 IC50
T2 construct: purchased Cayman Chemical 701080
T2 sequence (P35354 18-604): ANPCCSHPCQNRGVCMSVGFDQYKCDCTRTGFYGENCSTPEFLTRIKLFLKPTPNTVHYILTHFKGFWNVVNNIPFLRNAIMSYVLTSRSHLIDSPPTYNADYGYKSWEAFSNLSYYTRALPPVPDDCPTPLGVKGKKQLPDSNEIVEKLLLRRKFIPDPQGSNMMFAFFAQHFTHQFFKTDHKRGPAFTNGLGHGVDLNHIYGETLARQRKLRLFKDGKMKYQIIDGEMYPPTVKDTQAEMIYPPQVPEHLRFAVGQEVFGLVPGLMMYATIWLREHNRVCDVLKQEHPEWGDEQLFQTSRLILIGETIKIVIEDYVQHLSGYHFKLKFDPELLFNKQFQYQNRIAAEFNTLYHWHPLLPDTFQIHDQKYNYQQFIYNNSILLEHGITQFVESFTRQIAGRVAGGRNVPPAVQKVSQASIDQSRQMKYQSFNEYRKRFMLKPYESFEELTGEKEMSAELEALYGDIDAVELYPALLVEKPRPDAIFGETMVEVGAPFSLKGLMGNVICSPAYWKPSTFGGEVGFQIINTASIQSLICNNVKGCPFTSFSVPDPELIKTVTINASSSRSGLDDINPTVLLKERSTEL

[8] = test system: Staphylococcus aureus ATCC 29213; experiment: MIC, two-fold serial dilution, S. aureus; type: cell-based; conditions: ATCC29213, read-out: Minimum inhibitory concentration, SA
In short: as §1

[9] = test system: Pseudomonas aeruginosa ATCC 27,953; experiment: MIC, two-fold serial dilution, P. aeruginosa; type: cell-based; conditions: ATCC27, read-out: Minimum inhibitory concentration, PA
In short: as §1

[10] = test system: trypsin; experiment: Proteinase-inhibitory activity; type: biochemical; conditions: 250 µg/mL; mean ± SD (n = 3)
In short: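 Trypsin (0.06 mg per 2 mL, 20 mM Tris-HCl pH 7.4) was preincubated 5 min with test sample at 250 µg/mL, then 0.8% casein was added for 20 min. Perchloric acid stopped the reaction and supernatant absorbance was read at 280 nm. % inhibition is relative to the no-sample control, in triplicate.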

[11] = test system: Bacillus subtilis ATCC 6633; experiment: Agar well diffusion, B. subtilis; type: cell-based; conditions: ATCC6633, 100 μL of 10 mg/mL in DMSO, read-out: diameter of inhibition zone, BS
In short: as §2

[12] = test system: Bacillus megaterium ATCC 9885; experiment: MIC, two-fold serial dilution, B. megaterium; type: cell-based; conditions: Priestia megaterium, ATCC9885, read-out: Minimum inhibitory concentration, BM
In short: as §1

[13] = test system: Staphylococcus aureus ATCC 29213; experiment: Agar well diffusion, S. aureus; type: cell-based; conditions: ATCC29213, 100 μL of 10 mg/mL in DMSO, read-out: diameter of inhibition zone, SA
In short: as §2

T1 sequence (P23219 24-599): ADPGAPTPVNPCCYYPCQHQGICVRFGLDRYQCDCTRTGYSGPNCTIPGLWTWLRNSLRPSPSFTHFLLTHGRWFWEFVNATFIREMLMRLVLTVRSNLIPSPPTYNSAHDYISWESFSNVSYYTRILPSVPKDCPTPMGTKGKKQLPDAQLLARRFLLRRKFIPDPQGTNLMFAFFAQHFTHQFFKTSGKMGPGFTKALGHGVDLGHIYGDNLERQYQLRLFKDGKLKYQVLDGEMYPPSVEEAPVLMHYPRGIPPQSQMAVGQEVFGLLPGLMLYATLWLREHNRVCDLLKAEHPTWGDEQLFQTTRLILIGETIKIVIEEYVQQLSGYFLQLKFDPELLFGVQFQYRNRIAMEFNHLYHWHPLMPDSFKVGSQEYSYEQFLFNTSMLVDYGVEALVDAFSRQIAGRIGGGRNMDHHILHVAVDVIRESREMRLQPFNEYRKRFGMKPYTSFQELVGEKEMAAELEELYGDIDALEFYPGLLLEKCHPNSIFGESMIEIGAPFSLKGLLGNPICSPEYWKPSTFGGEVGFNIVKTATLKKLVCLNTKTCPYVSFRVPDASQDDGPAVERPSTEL

| SMILES | MIC [1] [µg/mL] | MIC [2] [µg/mL] | zone of inhibition at 10000 µg/mL [3] [mm] | MIC [4] [µg/mL] | zone of inhibition at 10000 µg/mL [5] [mm] | IC50 [6] [µM] | IC50 [7] [µM] | SI, selectivity index (COX-1/COX-2) [7] | MIC [8] [µg/mL] | MIC [9] [µg/mL] | melting point [°C] | % Inhibition (proteinase) [10] [%] | zone of inhibition at 10000 µg/mL [11] [mm] | MIC [12] [µg/mL] | zone of inhibition at 10000 µg/mL [13] [mm] |
| --- | --- | --- | --- | --- | --- | --- | --- | --- | --- | --- | --- | --- | --- | --- | --- |
| Cc1ccc2oc(=O)c(S(=O)(=O)Nc3ccc(S(=O)(=O)Nc4ncccn4)cc3)c(O)c2c1 [7d, 4-Hydroxy-6-methyl-2-oxo-N-(4-(N-(pyrimidin-2-yl)sulfamoyl)phenyl)-2H-chromene-3-sulfonamide] | 125 (≈ 256 µM) | 125 (≈ 256 µM) | 28 | 125 (≈ 256 µM) | 31 to 32 | 214 | 3.35 | 63.96 | 125 (≈ 256 µM) | 125 (≈ 256 µM) | 207 to 209 | 36.84 ± 4.87 | 31 | 125 (≈ 256 µM) | 30 |
| O=c1oc2ccc(Cl)cc2c(O)c1S(=O)(=O)Nc1ccc(S(=O)(=O)Nc2nccs2)cc1 [7e, 6-Chloro-4-hydroxy-2-oxo-N-(4-(N-(thiazol-2-yl)sulfamoyl)phenyl)-2H-chromene-3-sulfonamide] | 500 (≈ 973 µM) | 500 (≈ 973 µM) | 20 | 1000 (≈ 1950 µM) | 20 | 29.6 | 16.1 | 1.84 | 500 (≈ 973 µM) | 1000 (≈ 1950 µM) | 215 to 217 | 19.8 ± 2.54 | 25 | 500 (≈ 973 µM) | 23 |
| Cc1ccc2oc(=O)c(S(=O)(=O)Nc3ccc(S(=O)(=O)Nc4nccs4)cc3)c(O)c2c1 [7f, 4-Hydroxy-6-methyl-2-oxo-N-(4-(N-(thiazol-2-yl)sulfamoyl)phenyl)-2H-chromene-3-sulfonamide] | 500 (≈ 1010 µM) | 500 (≈ 1010 µM) | 23 | 250 (≈ 507 µM) | 26 | 40.9 | 10.1 | 4.06 | 250 (≈ 507 µM) | 500 (≈ 1010 µM) | 167 to 169 | 43.88 ± 5.6 | 27 | 250 (≈ 507 µM) | 24 |
| O=c1oc2ccc(Cl)cc2c(O)c1S(=O)(=O)Nc1ccccc1 [8a, 6-Chloro-4-hydroxy-2-oxo-N-phenyl-2H-chromene-3-sulfonamide] | 500 (≈ 1420 µM) | 250 (≈ 711 µM) | 25 | 250 (≈ 711 µM) | 28 | 25 | 8.5 | 2.94 | 500 (≈ 1420 µM) | 500 (≈ 1420 µM) | 337 to 339 | 44.7 ± 8.22 | 28 | 250 (≈ 711 µM) | 26 |
| Cc1ccc2oc(=O)c(S(=O)(=O)Nc3ccccc3)c(O)c2c1 [8b, 4-Hydroxy-6-methyl-2-oxo-N-phenyl-2H-chromene-3-sulfonamide] | 1000 (≈ 3020 µM) | 1000 (≈ 3020 µM) | 18 | 1000 (≈ 3020 µM) | 19 | 26 | 13.4 | 1.94 | 1000 (≈ 3020 µM) | 1000 (≈ 3020 µM) | 324 to 325 | 14.3 ± 2.21 | 19 | 1000 (≈ 3020 µM) | 20 |
| O=c1oc2ccc(Cl)cc2c(O)c1S(=O)(=O)Nc1ccc(O)cc1 [8c, 6-Chloro-4-hydroxy-N-(4-hydroxyphenyl)-2-oxo-2H-chromene-3-sulfonamide] | 250 (≈ 680 µM) | 125 (≈ 340 µM) | 27 | 125 (≈ 340 µM) | 31 to 32 | 15.4 | 11.9 | 1.3 and 1.29 | 125 (≈ 340 µM) | 250 (≈ 680 µM) | 250 to 251 | 41.69 ± 2.83 | 29 | 250 (≈ 680 µM) | 30 |
| Cc1ccc2oc(=O)c(S(=O)(=O)Nc3ccc(O)cc3)c(O)c2c1 [8d, 4-Hydroxy-N-(4-hydroxyphenyl)-6-methyl-2-oxo-2H-chromene-3-sulfonamide] | 125 (≈ 360 µM) | 125 (≈ 360 µM) | 31 | 125 (≈ 360 µM) | 31 to 32 | 19.4 | 1.86 | 10.5 and 10.45 | 125 (≈ 360 µM) | 125 (≈ 360 µM) | 253 to 254 | 20.15 ± 7.31 | 29 | 250 (≈ 720 µM) | 30 |
